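Protocol summary: plate cells (96-well), add compound at 5 concentrations, incubate 48 h, interpolate endpoints linearly. GI50 marks 50% less growth. The concentration for full growth arrest is given as TGI.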 Where a SMILES comes first, the peptide text is derived from it.
Columns and labels:
Assay in all cases: NCI tumour cell line growth inhibition, 48 h
[1] = tested on: DLD-1 colon
[2] = tested on: LXFL 529 NSCLC
[3] = tested on: M19-MEL melanoma
[4] = tested on: RXF-631 renal
[5] = tested on: SNB-78 CNS
[6] = tested on: XF 498 CNS
[7] = tested on: HOP-18 NSCLC
[8] = tested on: MDA-N
[9] = tested on: P388 leukemia
[10] = tested on: P388/ADR leukemia
[11] = tested on: SN12K1 renal

Row | Compound | TGI [1] [µM] | TGI [2] [µM] | TGI [3] [µM] | TGI [4] [µM] | TGI [5] [µM] | TGI [6] [µM] | TGI [7] [µM] | TGI [8] | other results
1 | CCOC(=N)CC(=O)Nc1cccc(Cl)c1 | > 100 | > 100 | > 100 | > 100 | > 100 | > 100 |  |  | 
2 | CNS(=O)(=O)NN(C)S(=O)(=O)c1ccc2ccccc2c1 | > 100 | > 100 | > 100 | > 100 |  |  |  |  | 
3 | COc1cccc2c1C(=O)c1c(O)c3c(c(O)c1C2=O)C[C@@](O)(C(=O)CO)CC3OC1CC(O)C(O)C(C)O1 (some centres undefined) | 10.8 | 9.26 | 1.96 | 21.2 | 9.41 | 1.24 | 6.06 | 1.98 µM | 
4 | Cc1cccc(N2C(=O)C(=O)C(c3nc4ccccc4s3)/C(=N/NC(=S)NN)C2=O)c1C (centres undefined) |  | > 100 | > 100 | > 100 | > 100 | > 100 |  |  | 
5 | COc1ccc2c(c1)CC1c3c(ccc(OC)c3O)CC2N1C (centres undefined) | > 100 | 39 | 56.9 | 47.1 | 97 | 62.3 | > 100 |  | 
6 | O=c1c(NO)c([N+](=O)[O-])cnn1-c1ccccc1 | 10.2 | 3.17 | 12.2 | 6.18 | 39.2 | 8.38 | 37.5 | 4.02 µM | 
7 | COc1ccc2c(c1)[n+]([O-])c(-c1ccc(C)cc1)c(N)[n+]2[O-] | > 100 | > 100 | > 100 |  | > 100 |  | > 100 |  | 
8 | COc1c(-c2ccc(O)c(O)c2)oc2c(O)c(O)cc(O)c2c1=O |  |  |  |  |  |  |  | > 100 µM | 
9 | CC1(C)C(=O)/C=C\C(=O)C(C)(C)C(=O)/C=C\C(=O)C(C)(C)C(=O)/C=C\C(=O)C(C)(C)C(=O)/C=C\C1=O | 30.1 | 21.3 | 40.6 |  | 50 | 51.4 | 40.6 | > 100 µM | 
10 | Oc1ccc(CCNCc2cc3c(cc2Br)OCO3)cc1 |  |  |  |  |  |  |  | > 100 µM | 
11 | CCCCCCCCCCCCCCCC(=O)OCC1OC(OC)C2NP(=O)(N(CCCl)CCCl)OC1C2O (centres undefined) | 14.5 | 8.06 | > 75.3 | 25.7 | 19.2 | 7.83 | 33.6 |  | 
12 | COc1ccc(-c2cc(-c3cc(Cl)cc(Br)c3O)[nH]c(=O)n2)cc1 | 38.4 | 30 | 46.4 |  | 64.2 |  | 55.7 |  | 
13 | C/C(=N\NC(=S)N1CC2CCC(CC2)C1)c1cccc(C)n1 |  |  |  |  |  |  |  | 17.8 µM | 
14 | CCOC(=O)C1=C(C)N(NC(N)=O)C(C)(O)C12CCOC2=O (centres undefined) | > 100 | > 100 | > 100 | > 100 | 34.5 | > 100 |  |  | 
15 | O=[N+]([O-])c1ccc(/C=C/c2csnn2)cc1 | > 100 | > 100 | > 100 |  | > 100 |  | > 100 |  | 
16 | Cc1ccc(NC(=S)SCCC(=O)O)cc1 |  | > 100 |  | > 100 | > 100 |  |  |  | 
17 | CCC(C)C1NC(=O)C2CCCN2C(=O)CNC(=O)C(C)NC(=O)C(Cc2ccccc2)NC(=O)C(C(C)C)NC1=O (centres undefined) (cyclo(GPIVFA); configuration not given here) | > 100 | > 100 | > 100 | > 100 |  |  | > 100 |  | 
18 | Clc1ccc2nc(-c3ccccc3)nc(Cl)c2c1 | > 100 | > 100 | > 100 | > 100 | > 100 |  |  |  | 
19 | CC1=C(Cl)C=CP(=O)(OC(C)C)C1 (centres undefined) | > 100 | > 100 | > 100 | > 100 | > 100 |  | > 100 |  | 
20 | O=[N+]([O-])c1cc(Cl)ccc1OCc1ccccc1 | > 100 | > 100 | > 100 | > 100 | > 100 | > 100 |  |  | 

Row | Compound | TGI [1] [µM] | TGI [2] [µM] | TGI [3] [µM] | TGI [4] [µM] | TGI [5] [µM] | TGI [6] [µM] | TGI [7] [µM] | TGI [8] | other results
21 | CCCCN(CCCC)CCC(O)c1cc2c(Cl)cc(Cl)cc2c2cc(C(F)(F)F)ccc12 (centres undefined) |  |  |  |  |  |  |  | 26 µM | 
22 | C/C(=N\NC(=S)N1CCCCCCCCCCCC1)c1ccccn1 |  |  |  |  |  |  |  | 1.16 µM | 
23 | COC(=O)C1C=NNC1C(=O)OC (centres undefined) |  | > 100 | > 100 | > 100 | > 100 | > 100 | > 100 |  | 
24 | CCN(CC)C(=O)N1CCN(C=S)CC1 | > 100 | > 100 | > 100 |  | > 100 |  | > 100 |  | 
25 | O=C(O)CCc1c2ccc(=O)c(O)c-2oc2c(O)c(O)ccc12 |  |  |  |  |  |  |  | 36.5 µM | 
26 | COC(=O)C(CBr)CBr | 8.29 | 3.22 | 17.2 | 8.96 | 3.59 | 4.54 |  | 9.22 µM | 
27 | C=C1C2CC(OC(C)=O)C3(C)C(c4ccoc4)OC(=O)[C@@H](O)[C@]13OC1C[C@H](OC(C)=O)C(C)(C)[C@H](CC(=O)OC)[C@]12C (some centres undefined) |  | > 100 | > 100 | > 100 | > 100 |  | > 100 |  | 
28 | Cc1ccn2c(CCc3nnc4cc(C)ccn34)nnc2c1 |  |  |  |  |  |  |  | > 100 µM | 
29 | O=[N+]([O-])c1ccccc1C=NC12CC3CC(CC(C3)C1)C2 | > 100 | > 100 | > 100 | > 100 | > 100 | > 100 | > 100 |  | 
30 | COC(=O)N/N=C(/CCC(=O)Nc1ccc(C)c(C)c1)CC(=O)C(C)(C)C | > 100 | > 100 | > 100 |  |  | > 100 | > 100 |  | 
31 | C=C(CC(=O)O)C(=O)O (tested in a mixture with another compound) |  |  |  |  |  |  |  | > 50 µg/mL | GI50 [8]: > 50 µg/mL
32 | CC1C[C@]2(C[C@@H](C)C(=O)O2)O[C@@H]2CC3(C)[C@@H]4CCC5C(C)(C)OC(=O)C[C@H]6OO[C@]4(CC[C@]3(C)C12)CC56O (some centres undefined) | > 100 | > 100 |  |  | > 100 | > 100 | > 100 |  | 
33 | CCOC(=O)[C@H]1Nc2ccc([N+](=O)[O-])cc2C2c3ccccc3CC21 (some centres undefined) | > 100 | 49.3 | 70.7 |  | > 100 | 82.7 |  |  | 
34 | CCOC(=O)c1oc2ccc([N+](=O)[O-])c3c2c1CCC3 | > 100 | > 100 | > 100 | > 100 | > 75 | 41 | > 100 | > 100 µM | 
35 | CC(=O)[CH-]C(=O)c1ccccc1.CC(=O)[CH-]C(=O)c1ccccc1.Cl.[O-]c1ccccn1.[O-]c1ccccn1.[Ti+4] |  | > 100 | > 100 |  |  |  |  |  | GI50 [2]: > 100 µM; GI50 [3]: > 100 µM
36 | CC(/C=C/c1ccccc1)=N\NC(N)=S |  |  |  |  |  |  |  | > 100 µM | 
37 | CC12CO[C@@](C)(CC(S(=O)(=O)c3ccccc3)C1)O2 (some centres undefined) | > 100 | > 100 | > 100 |  | > 100 |  | > 100 |  | 
38 | C/C(=N\N=C(\[Se])N(C)C)c1ccccn1 | 16.9 | 13.8 | 5.02 | 74.1 | 15.9 | 20.6 | 12.1 | 26.3 µM | TGI [9]: < 0.01 µM; TGI [10]: < 0.01 µM; TGI [11]: 13.9 µM
39 | O=S1(=O)CCCS(=O)(=O)C(c2ccccc2)=C1c1ccccc1 | > 100 | > 100 | > 100 | > 100 | > 100 |  | > 100 |  | 
40 | Cc1ccc(-c2cc(=O)c3cc(C)c(C)c(C(=O)O)c3o2)cc1N | > 100 | > 100 | > 100 | > 100 | > 100 | > 100 | > 100 |  | 
